The text below walks through data of PMC11431997, “Baicalin Inhibits FIPV Infection In Vitro by Modulating the PI3K-AKT Pathway and Apoptosis Pathway” (International Journal of Molecular Sciences, 2024).

Data set [1] relates to FIPV (BJ-01). In words: Inhibitory effects of compounds on FIPV-infected cells (compound and FIPV added simultaneously, CCK-8). The class given is cell-based, feline infectious peritonitis virus. How it is done:
According to previous methods, CRFK cells were seeded in 96-well cell culture plates at a density of 1 × 10^4 cells/well and cultured at 37 °C in 5% CO2 until the cell density was greater than 90%. After the cells were washed twice with PBS, 50 μL of test compound and 50 μL of FIPV were added to each well simultaneously (at the same time, a cell control group with only 100 μL of MM and a viral control group with only 100 μL of FIPV were added). There were 3 replicate wells for each compound and group. After 72 h of incubation at 37 °C and 5% CO2, the liquid in the plate was discarded, and the cells were washed twice with PBS. The MIR of the compounds to the virus was calculated according to the instructions of the Cell Counting Kit-8. Afterwards, the compounds with MIR > 50% were diluted to 8 concentrations with MM, and the above process was repeated. Then, the EC50 values of the compounds were calculated with GraphPad Prism 10.

For the next data set, the system named is CRFK cells. Put plainly: Cytotoxicity assay of the compounds (CCK-8). The data set is classed as cell-based, feline. The conditions noted are these: cat, 72 h. How it is done:
(§1) CRFK cells were seeded in 96-well cell culture plates at a density of 1 × 10^4 cells/well and incubated at 37 °C with 5% CO2 until the cell density reached more than 90%. Then, the medium was discarded, and the cells were washed twice with PBS. The compound to be tested was diluted in 10 successive gradients with MM at a 2-fold multiplicity (at the same time, there was a cell control group of 100 μL of MM, and 3 replicate wells were set for each concentration and group) and incubated at 37 °C with 5% CO2 for 72 h; then, the liquid in the plate was discarded and washed twice with PBS. Afterwards, the cytopathic ratios (CRs) of the compounds to cells were calculated according to the instructions of the Cell Counting Kit-8 (MCE, NJ, USA), and the CC50s of the compounds and the MNTCs at which the compounds could survive more than 90% of the cells were calculated using GraphPad Prism 10. In subsequent experiments, the final concentrations of the compounds after addition were the MNTCs of the compounds unless otherwise specified.

A short description of data set [2]: Cytotoxicity assay of the compounds (CCK-8). The class given is cell-based, feline. The conditions noted are these: cat. Here is the method:
as §1

In data set [3] the test system is FIPV (BJ-01). In words: Impact of the compound on FIPV adsorption (cells pre-incubated with compound, CCK-8). The class given is cell-based, feline infectious peritonitis virus. The note with it: cells co-cultured with baicalin before FIPV, all times. Here is the method: According to previous methods, CRFK cells were seeded in 96-well cell culture plates at a density of 1 × 10^4 cells/well and cultured at 37 °C in 5% CO2 until the cell density was greater than 90%. Then, the medium was discarded, and the cells were washed twice with PBS. The compound was first added into 96-well cell culture plates at 100 μL/well and then incubated at 37 °C and 5% CO2 for […], 1, 2, 4, and 6 h, respectively, then incubated at 4 °C for 1 h. After that, the liquid in the plates was removed and washed with PBS twice. Then, added FIPV into cells at 100 μL/well and incubated at 37 °C and 5% CO2 (at the same time, a cell control group with only 100 μL of MM and a viral control group with only 100 μL of FIPV were added). There were 3 replicate wells for each compound and group. After the CPE of the viral control group reached more than 80%, the liquid in the culture plate was removed and washed twice with PBS. Afterwards, the IR of the compounds against the virus was computed according to the directions of the Cell Counting Kit-8.

For data set [4], the system named is PI3K-AKT signaling pathway and apoptosis pathway. In words: Western blot of key proteins in FIPV-infected CRFK cells. The class given is cell-based, feline. The note with it: treatment group vs FIPV group, p < 0.05. Here is the method:
Based on the results of the above experiments, the cell precipitates were collected according to the method in Section 4.6 and grouped as described in Section 4.7. After infection, the cells were collected at the appropriate time of infection, and the proteins were extracted from the samples according to the instructions of a total protein extraction kit (strong) (Solarbio, Beijing, China). Afterwards, the protein concentration of the extracted samples was determined separately using a BCA Protein Quantification Kit (Vazyme, Nanjing, China), and all sample proteins were diluted to the same concentration using PBS. The diluted protein samples were mixed with NuPAGE LDS Sample Buffer (4×) (Invitrogen, Waltham, MA, USA) at a ratio of 1:4 and heated at 70 °C for 10 min to denature the proteins. After that, the denatured proteins were added to 10 wells of 12% sodium dodecyl sulfate-polyacrylamide gel electrophoresis (SDS-PAGE) (Vazyme, Nanjing, China) at 20 μg/well, after which the total proteins were separated on NuPAGE MES SDS Running Buffer (Invitrogen, CA, USA). After separation, proteins were transferred from the gel onto 0.45 μm polyvinylidene fluoride (PVDF) membranes (Millipore, Billerica, MA, USA) using WB Transfer Buffer (Solarbio, Beijing, China). After that, the PVDF membranes were blocked with 5% skim milk (Solarbio, Beijing, China) at room temperature for 2 h. At the end of the closure, the membranes were washed with TBST (6 times, each time for 5 min, as described below); then. the primary antibodies were added and incubated at 4 °C overnight. The next day, the PVDF membranes were washed with TBST, the primary antibodies were removed, and the secondary antibodies were added and incubated at room temperature for 2 h (the antibody information and dilutions are shown in Section 4.1.4). At the end of the incubation, the PVDF membranes were washed with TBST, after which the protein bands were exposed and imaged using a SuperPico ECL Chemiluminescence Kit (Vazyme, Nanjing, China) and an Al680 imaging system (GE, Boston, MA, USA). The gray values of the WB bands were analyzed using ImageJ 1.54f, and the relative expression was calculated using GAPDH as an internal reference protein.
A general note: In western blotting, separated proteins are transferred to a membrane and probed.

For data set [5] the test system is unchanged. In words: 4D-LFQ proteomics of FIPV-infected CRFK cells. The note with it: 48 h. The data set is classed as cell-based, feline. The source says:
According to the methods of Section 4.6, post-infection cells were collected at the appropriate time of infection and then quickly frozen in liquid nitrogen. The cell control group was named the control group (Group C), the virus control group was named the FIPV group (Group F), the compound treatment group was named the treatment group (Group T), and each group contained three replicate samples. Afterwards, they were sent to Shanghai Applied Protein Technology Co., Ltd. (Shanghai, China) for 4D-LFQ proteomics analysis.

Setting [6] is: treatment/FIPV comparison group.

Molecules are shown by their SMILES. Converted amounts (≈) assume the structure as drawn. “And” between values parts separate entries of the source, which are not always exact repeats. Equal values may be shown once.

One may read the EC50 as the midpoint of the concentration-response curve. What is called CC50 is the concentration at which the toxic effect on the cells reaches its halfway point. As for `O=C(O)[C@H]1O[C@@H](Oc2cc3oc(-c4ccccc4)cc(=O)c3c(O)c2O)[C@H](O)[C@@H](O)[C@@H]1O` [Baicalin], in the data set on FIPV (BJ-01) [1] (Alphacoronavirus 1, FIPV in CRFK cells, gradient dilution, 72 h, CCK-8), the midpoint of the response, the EC50, lay at 20.8 µg/mL (≈ 46.6 µM). For the same molecule, the “SI (CC50/EC50)” value in the data set on FIPV (BJ-01) [1] (FIPV, CRFK cells) was > 3 and 5.5. Further, the “MNTC (maximum noncytotoxic concentration)” value with CRFK cells was determined as 31.36 µg/mL. For the same molecule, the midpoint of cytotoxicity in data set [2], the CC50 at 72 h, lay at 114 µg/mL (≈ 257 µM). In the data set on FIPV (BJ-01) [3], the “inhibition rate on FIPV infection (adsorption)” value is reported as not above 50%. In data set [4], the “Bax relative expression (WB, GAPDH reference)” value is on record as “significantly downregulated”; the “Bcl-2/Bax relative expression (WB)” value was “significantly upregulated”; the “Bcl-2 relative expression (WB, GAPDH reference)” value is listed as “significantly upregulated”; the “EGFR relative expression (WB, GAPDH reference)” value is listed as “significantly upregulated”. Moreover, in data set [4], the “PI3K relative expression (WB, GAPDH reference)” value is reported as “significantly upregulated” and the “cleaved caspase 9 relative expression (WB, GAPDH reference)” value is given as “significantly downregulated”. Further, in data set [5] (treatment group vs FIPV group), the “AKT2 level (4D-LFQ)” value was “significantly upregulated”, the “AKT3 level (4D-LFQ)” value was “tended to increase”, the “EGFR level (4D-LFQ)” value was “significantly upregulated” and the “PIK3CA level (4D-LFQ)” value was “significantly upregulated”. In data set [5] (setting [6]), the “BAX level (4D-LFQ)” value is “downregulated but not significant”, the “BCL2L level (4D-LFQ)” value is reported as “upregulated but not significant” and the “CASP9 level (4D-LFQ)” value was “significantly downregulated”.
